Measurements reported in PubChem BioAssay AID977607 (Broad Institute, 2014).
Where “and” joins values, the source holds several entries; their conditions need not be identical. Equal values may be shown once. Calls of active or inactive are those of the source.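 The calls were made as follows: active = curve reaches 40% activation over neutral controls at an AC40 no higher than the top valid tested concentration; inconclusive = no clear call, values can overlap the other calls; inactive = signal moving opposite to the expected increase, and the rest.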

Test system: INS-1E GLuc insulin secretion reporter, luminescence, 2-3 h
Assay: activators of glucose-dependent insulin secretion, dose response, cell-based, INS-1E, Gaussia luciferase, luminescence, cherry-pick, set 2 (AID 977607)

Compound	AC40
C=C(C)C1Cc2c(C)nn(-c3cccc4cccnc34)c2C1 (stereo unspecified)	2.1 µM
CCOc1ccccc1Nc1cc2n(c(=O)n1)CCc1cc(OC)c(OC)cc1-2	1.07 µM
CCCCCCn1c(N(CC)CC)nc2c1c(=O)[nH]c(=O)n2C	23.8 µM
COc1ccccc1CCn1cnc(-c2ccccc2OC)c1CC(C)C	14.6 µM
COc1ccc(C(=O)Nc2ccccc2C(=O)Nc2ccncc2)cc1	0.413 µM
CCCCc1c(-c2cccc(OC)c2)ncn1CCc1ccccc1OC	11.8 µM
Cc1ccccc1-c1ccc(C2[C@@H]3CN(C(=O)Nc4cccc(F)c4)C[C@H]2N3)cc1 (stereo partly specified)	8.64 µM
COc1ccc(CCNC(=O)NS(=O)(=O)c2ccc(C)cc2)cc1OC	> 35 µM (inactive)
CC(C)C(Cl)=NOC(=O)Nc1ccc(S(N)(=O)=O)cc1	10.2 µM
COc1ccccc1C(=O)NC(=S)NC12CC3CC(CC(C3)C1)C2	7.9 µM
O=c1c2ccccc2sn1-c1ccccc1	3.25 µM
OC(c1ccccc1)(c1ccccc1)C1CCN(CCCOc2ccc(-c3ccsc3)cc2)CC1	8.81 µM
CC(C)CSc1nc2c(c(=O)[nH]c(=O)n2C)n1CCc1ccccc1	8.81 µM
CNc1nc(Nc2ccccc2)nc(OCC(F)(F)F)n1	0.606 µM
COc1ccc(C2CNC(=O)C2)cc1OC1CCCC1 (stereo unspecified)	1.98 µM
CNc1nc(-c2ccccc2)[n+](-c2ccc(C)cc2)s1	2.16 µM
N#Cc1sc2nc(N3CCCCC3)c3c(c2c1N)CCCC3	28.6 µM
O=c1cc(-c2ccncc2)oc2c1ccc1ccccc12	11.6 µM
CC(C)n1cc(/C(N)=N/O)c(=O)n(Cc2ccccc2)c1=O	9.39 µM
Fc1ccc(-c2ccc(C3[C@@H]4CN(Cc5ccccc5)C[C@H]3N4)cc2)cc1 (stereo partly specified)	6.57 µM
CC1(C(=O)NS(=O)(=O)c2ccc(Cl)s2)CCN1C(=O)C1(c2ccc(Cl)cc2)CCC1 (stereo unspecified)	> 35 µM (inactive)
CCOc1ccc(-c2nnn(CC(=O)Nc3ccccc3OC)n2)cc1OCC	2.04 µM
Cc1ccc(C)c(OCC(=O)Nc2nonc2NC(=O)COc2cc(C)ccc2C)c1	5.44 µM

Compound	AC40
OC(c1ccccc1)(c1ccccc1)C1CCN(CCCOc2cccc(OC(F)(F)F)c2)CC1	5.24 µM
OC(CNCCC1C=Nc2ccccc21)Cn1c2ccc(Cl)cc2c2cc(Cl)ccc21 (stereo unspecified)	4.84 µM
COc1ccc(C(=O)NCC(=O)OCC(=O)Nc2ccc(C)c(S(=O)(=O)N(C)C)c2)cc1OC	1.67 µM
COc1cc(CNCCc2ccccc2)cc(Cl)c1OCc1ccccc1	9.79 µM
CCC(=O)Nc1ccc(Cl)c(NC(=S)NC(=O)COc2ccc(Cl)cc2)c1	7.71 µM
CCCc1cc(-c2nc(-c3ccc(C)cc3)cs2)ccn1	10.2 µM
COc1ccc(-c2cc3ccccc3oc2=O)cc1NC(=S)NC(=O)c1ccc2c(c1)OCCO2	4.75 µM
COc1ccc(CNCC(O)COc2ccc(C(C)(C)c3ccccc3)cc2)cc1 (stereo unspecified)	6.55 µM
O=C(O)c1ccc(/C=N/n2c(C3CCCCC3)n[nH]c2=S)cc1	5.87 µM
O=S(=O)(c1ccccc1F)N1C[C@@H]2N[C@H](C1)C2c1ccc(/C=C/c2ccccc2)cc1 (stereo partly specified)	6.46 µM
CN(C)CCNC(=O)c1cccc(-c2cc(NC=O)c3ncc(-c4cccc(C(F)(F)F)c4)n3c2)c1	24.4 µM
CC(C)(C)OC(=O)N[C@@H](Cc1ccccc1)c1nnc(S(=O)(=O)Cc2ccccc2)o1	3.69 µM
COc1ccc(-n2sc3ccccc3c2=O)cc1	3.14 µM
Cc1cc(C)nc(Nc2n[nH]c(COc3ccc4ccccc4c3)n2)n1	7.71 µM
C(=C\c1ccc(C2[C@@H]3CN(Cc4nccs4)C[C@H]2N3)cc1)/c1ccccc1 (stereo partly specified)	17 µM
COc1ccc(-c2ccc3c(N)c(C(=O)c4ccc(OC)c(OC)c4)sc3n2)cc1	5.83 µM
COc1ccc(C)c2sc(N(CCCN(C)C)C(=O)c3ccc(S(=O)(=O)N4CCc5ccccc5C4)cc3)nc12	3.95 µM
O=C(CCN1CCOCC1)c1ccccc1	7.71 µM
COC(=O)C1=C(C)N(Cc2cccc(C(F)(F)F)c2)C(=NCc2ccc(C(F)(F)F)cc2)NC1c1ccccc1 (stereo unspecified)	9.69 µM
CC(C)Nc1nc(NC(C)(C)C)nc(Oc2ccc(=O)n(C)n2)n1	29.2 µM
COc1ccc(C#Cc2ccc([C@@H]3[C@H](CO)N4CCCCN(Cc5ccccc5F)C[C@@H]34)cc2)cc1	6.53 µM
O=C(N/N=C/c1ccco1)c1cc(-c2ccc3ccccc3c2)n[nH]1	4.19 µM
CCCCc1c(Cc2cccc(F)c2)ncn1CCc1ccccc1OC	12.3 µM

Compound	AC40
NS(=O)(=O)c1ccc(N=Cc2c(O)n(C3CCCCC3)c(=O)n(C3CCCCC3)c2=O)cc1	16 µM
CCOCCCNC(=O)c1oc2ccc3c(c2c1C)C(O)CC(C)(C)O3 (stereo unspecified)	5.92 µM
Cc1ccc2c(Cl)c(C)c(N3CCCCC3)nc2n1	11.5 µM
COC(=O)c1cnn(-c2nc(-c3ccccc3)cs2)c1N	> 35 µM (inactive)
CCCCc1ccc(NC(=O)COc2ccc(C(=O)Nc3ccccc3OCC)cc2)cc1	2.88 µM
COc1ccc(C(=O)N=C2CCC(C#N)=C3c4cc(OC)c(OC)cc4CCN23)cc1	0.483 µM
COc1ccc(C(CCNCc2ccc(OC(C)C)cc2)C(C)C)cc1 (stereo unspecified)	21.7 µM
Fc1ccc(/C=N/c2c(-c3ccc(F)cc3)nc3n2CCS3)cc1	6.62 µM
COc1ccc(C(=O)C2CCCN(C(=O)c3n[nH]c4c3CCCC4)C2)cc1OC (stereo unspecified)	3.89 µM
O=C1CC(Sc2nnc(-c3ccccc3)o2)C(=O)N1c1ccccc1 (stereo unspecified)	12.1 µM
N#Cc1ccc(-c2ccc([C@@H]3[C@H]4CNC[C@@H]3N4Cc3cc(F)ccc3F)cc2)cc1	16 µM
N#Cc1c(-c2cccc(Br)c2)cc(-c2cccnc2)nc1N	5.82 µM
COc1cc2nc(N3CCN(c4cc(C)ccc4C)CC3)nc(N)c2cc1OC	8.44 µM
O=C(O)c1ccc(-n2nnnc2SCc2ccccc2F)cc1	0.0781 µM
COC(=O)C1=C(C)N(Cc2cccc(C(F)(F)F)c2)C(=NCc2ccccc2)NC1c1ccc(Cl)cc1 (stereo unspecified)	11.6 µM
COCCNc1nc(Oc2cncc(Cl)c2)c2sccc2n1	2.88 µM
O=C(Nc1ccc(C(F)(F)F)cc1)N1C[C@@H]2N[C@H](C1)C2c1ccc(/C=C/c2ccccc2)cc1 (stereo partly specified)	8.24 µM and 1.64 µM
Cc1ccccc1Cn1ccc(NC(=O)c2cc3nc(-c4ccco4)cc(C(F)(F)F)n3n2)n1	4.72 µM
N#Cc1sc2nc3c(c(-c4cccnc4)c2c1N)CCC3	26.5 µM
Cc1[nH]c2ccc(OC(F)(F)F)cc2c1CCNCc1ccc(Cl)cc1	6.14 µM
O=c1[nH]nc(-c2ccccc2)c2ccccc12	22.5 µM
OC(c1ccccc1)(c1ccccc1)C1CCN(CCCOc2ccc(-c3ccc(F)cc3F)cc2)CC1	3.89 µM
CCc1nc(N)nc2c1C(=O)CC(C)(C)C2	> 35 µM (inactive)

Compound	AC40
CN(C)S(=O)(=O)c1cccc(-n2sc3ccccc3c2=O)c1	4.6 µM
CCCn1c2ccccc2c2cn[nH]c(=O)c21	16.4 µM
O=C(NCC1OCCc2ccccc21)c1ccc(NC(=O)c2cccc(Br)c2)cc1 (stereo unspecified)	14 µM
COc1ccc(Br)cc1C(=O)Nc1cc(C)cc(C)c1	7.63 µM
CCOc1ccc(Nc2oc(-c3ccc(Cl)cc3)nc2C#N)cc1	5.14 µM
CC1CCN(S(=O)(=O)c2ccc(C(=O)OCc3ccc4c(c3)OCO4)cc2)CC1	13.4 µM
O=C(NCC1OCCc2ccccc21)c1ccc(NC(=O)c2ccc(Cl)cc2Cl)cc1 (stereo unspecified)	20.4 µM
Cc1ccc(CNc2nc(NCc3ccccc3)nc3ccsc23)c(C)c1	19.2 µM
CC(C)(C)c1ccc(-c2cc(-c3ccccc3O)[nH]n2)cc1	6.61 µM
COc1ccc(-c2nc(CCl)cs2)cc1OC	> 35 µM (inactive)
CCOC(=O)c1ccc(Nc2ncnc3ccc(C)cc23)cc1	12.4 µM
N#Cc1c(-c2ccncc2)cc(-c2ccc(F)cc2)nc1N	2.96 µM
COc1ccc(Br)cc1C(=O)Nc1cccc(C)c1	11.6 µM
CC(C)Cn1c(=O)n(C)c(=O)c2[nH]cnc21	9.51 µM
c1ccc(-c2nnc3ccc(N4CCC5(CC4)OCCO5)nn23)cc1	> 35 µM (inactive)
COc1nc(N2CCOCC2)nc(-n2cccc2)n1	0.937 µM
N#Cc1cccc(Oc2ccc(-c3cnc4ccccc4n3)cc2)c1C#N	13.1 µM
CCOC(=O)Cn1c(=NC(=O)c2nc3ccccc3s2)sc2cc(S(N)(=O)=O)ccc21	11.4 µM
C/C(=N\NC(=O)c1cccc(Br)c1)c1ccc(Br)cc1	16.6 µM
O=C(CCN1CCOCC1)c1ccc2c(c1)OCCO2	14.5 µM
Cc1cccc(Cn2ccc(-c3ccc(Cl)cc3)c(C#N)c2=O)c1	7 µM
COc1cc(/C=N/NC(=O)Nc2ccccc2)ccc1OCCOc1ccccc1C	2.29 µM
Cc1ccccc1C(=O)Nc1nnc(-c2ccc(C(C)(C)C)cc2)s1	18.3 µM

Compound	AC40
NC(=O)COC(=O)c1ccccc1Oc1ccccc1	6.24 µM
C[C@@H]1CN([C@H](C)CO)S(=O)(=O)c2ccc(-c3ccc(F)cc3)cc2O[C@H]1CN(C)Cc1cccc(F)c1	15.5 µM
COc1ccc(/C=N/N(C(C)=O)c2nc(-c3ccc(C)cc3)cs2)cc1	0.895 µM
CN(C)CCOc1ccc(-c2c(-c3ccsc3)sc3ccccc23)cc1	10.9 µM
CC(C)CC#Cc1ccc2c(c1)O[C@@H](CN(C)Cc1cccc(F)c1)[C@H](C)CN([C@@H](C)CO)S2(=O)=O	7.13 µM
O=C(O)c1ccc(-n2nc(-c3ccccc3)c3ccccc3c2=O)cc1	> 35 µM (inactive)
CS(=O)(=O)N(Cc1ccc(Cl)cc1)c1ccc(C(=O)NCCC2=CCCCC2)cc1	13 µM
CCOc1ncccc1C(=O)Nc1ccc(S(=O)(=O)Nc2nccs2)cc1	3.21 µM
O=C(NCCC1=CCCCC1)C(=O)NCC(c1ccco1)N1CCN(c2ccccc2)CC1 (stereo unspecified)	6.33 µM
Cc1cc2c(cc1C)CSC(c1c(O)ccc3ccccc13)SC2	10.9 µM
COC(=O)c1ccc(C(=O)Nc2cc(Cl)ccc2Cl)cc1NC(=O)c1ccccc1C	2.43 µM
CCOc1cc(N2CCOCC2)c(OCC)cc1NC(=O)COC(=O)c1cc2ccccc2cc1O	10.3 µM
COc1ccc(-c2nnc3sc(-c4cccs4)nn23)cc1OC	22 µM
COc1cc2cnc(-c3ccsc3)cc2cc1OC	0.826 µM
COc1ccc(C(=O)NC(=S)Nc2ccc3c4c(cccc24)CC3)cc1OC	7.84 µM
COc1cccc(-c2ccc(C3[C@@H]4CN(Cc5cccc(F)c5)C[C@H]3N4)cc2)c1 (stereo partly specified)	4.47 µM
COc1ccc(/C=N/NC(=O)c2ccc(COc3ccccc3Cl)o2)c(OC)c1C	5.44 µM
COC(=O)c1ccc(OC)c(OC2CCCC2)c1	0.254 µM
Fc1ccccc1-c1ccc(C2[C@@H]3CN(Cc4ccccc4)C[C@H]2N3)cc1 (stereo partly specified)	7.05 µM
